≈ marks a conversion by molar mass, not a printed value.
Tests used:
[1] = system: human glycine N-methyltransferase promoter; assay: GNMT promoter-driven luciferase reporter assay in H7GPL cells; type: cell-based; settings: H7GPL luciferase
Protocol: Please refer to FIG. 1, which illustrates the configuration of pLV-GNMTpLuc plasmid. HEK293T cells were cotransfected with a packaging plasmid-pCMV-ΔR8.91, a VSV-G envelope expressing plasmid-pMD.G and pLV-GNMTpLuc using TurboFect™ Reagent (Fermentas, Hanover, Md.). One resultant colony was picked, amplified and denominated as H7GPL (HuH-7-GNMT promoter-Luciferase). The relative luciferase activity (RLA) was calculated as “activity of luciferase/intensity of alamarBlue fluorescence”. The fold changes in GNMT promoter induction was calculated as “RLA of drug/RLA of solvent control”. Compounds with the ability to activate human glycine N-methyltransferase promoter in H7GPL could serve as a citeria for screening drugs.
Please refer to FIG. 2, which illustrates the luciferase activity in a screening platform. Previously, 26 FDA approved drugs were identified that can reverse the gene expression signature of HCC. We obtained 26 drugs. H7GPL cells were seeded in 96-well plates for 18 hours and then were treated with these 26 drugs and solvent control for an extra 24 hours.
In the initial screening, when (individual luciferase activity−average luciferase activity of all hits)/standardized Z scores of all samples is greater than 1.5, it means the compound has the capability of enhancing the GNMT reporter activity.
Huh7 cells were infected with this virus and selected with puromycin-containing medium. One resultant colony was picked, amplified and denominated as H7GPL (Huh7 GNMT promoter-luciferase). The cell lysate of H7GPL was used for luciferase activity measurement using the Luciferase Assay System (Promega).
For primary screening, H7GPL cells seeded in 96-well plates were treated for 24 h with individual drugs at a concentration of 2 mg/mL for crude extracts and 0.2 mg/mL for pure compounds and then were lysed for the luciferase activity assay using the Luciferase Assay System (Promega, Madison, Wis., USA).
Reporter activity for each well was transformed to the Z score by using data from all assay plates.
Then, hits of primary screening were sorted by Z score ≥1.5 and used for secondary screening.
And then placed in the above-described culture plate H7GPL cell replication, and after the disposal of seized goods in those 20 hours, the company added AbD serotec Reagent (Oxford, UK), further cultured for 4 hours.
The cytotoxicity was measured according to the manufacturer's recommendation for assessing the reporter gene.
Drugs that induced GNMT promoter activity ≥1.5-fold were considered as hits of the secondary screen with the capability of enhancing the activity of GNMT.

Huh7 cells = assay: alamarBlue cell viability / proliferation, Huh7; type: cell-based, human
Text: Next, we analyzed the effect of PGG on cell proliferation in different liver cancer cell lines, including Huh7, Hep3B (ATCC-No 8064), HepG2 (ATCC HB-8065), SK-HEP-1 (ATCC HTB-52), Mahlavu and HepG2 (ATCC HB-8065).
Please refer to FIG. 18, which illustrates the effect of PGG on cell proliferation in different liver cancer cell lines, wherein the numeral 1 denotes Huh7 cells, the numeral 2 denotes Hep3B cells, the numeral 3 denotes SK-HEP-1 cells, the numeral 4 denotes Mahlavu cells, and the numeral 5 denotes HepG2 cells. And cell viability was determined by the alamarBlue® viability assay. IC50 values of PGG in each cell line are shown as follows: Huh7 cells 0.03 mg/mL, Hep3B cells 0.07 mg/mL, SK-HEP-1 cells, Mahlavu cells and HepG2 0.10 mg/mL dose-dependent.
Human liver cancer cell lines Huh7, Hep G2, Hep 3B, SK-HEP-1, Mahlavu and embryonic kidney cell line HEK-293T all were cultured in Dulbecco's Modified Eagle's Medium (DMEM) (Gibco BRL, Grand Island, N.Y., USA) with 10% heat-inactivated fetal bovine serum (HyClone, Logan, Utah, USA), penicillin (100 U/mL), streptomycin ([…]), nonessential amino acids (0.1 mM/L) and L-glutamine (2 mM/L) in a humidified incubator with 5% CO2.

GNMT = GNMT expression in xenograft tumor samples; type: in vivo, mice
Text: Please refer to FIG. 21, which illustrates GNMT/actin expression in the tumor tissue.
Please refer to FIG. 30, which illustrates the relative expression of GNMT mRNA in the tumor xenograft mice after treatments, wherein the numeral 1 is for a physiological saline solution, the numeral 2 is for F3-6 (25 mpk), the numeral 3 is for F3-6 (300 mpk), the numeral 4 is for sorafenib (10 mpk), the numeral 5 is for F3-6 (25 mpk) with sorafenib (10 mpk), and the numeral 6 is for PGG (25 mpk) with sorafenib (10 mpk). The expression activity of GNMT mRNA is increased whenever fracrions F3-6 or PGG are administered.
RNA was prepared by using Tri Reagent (Sigma-Aldrich, St Louis, Mo., USA) and was reverse transcribed into cDNA using a Super Script II Reverse Transcriptase Kit (Invitrogen Inc., Carlsbad, Calif., USA).
PCR was performed on an ABI StepOne Plus System (Applied Biosystems, Foster City, Calif., USA) using the LightCycler® First Start DNA Master SYBR Green I reagent (Roche Diagnostics, Basel, Switzerland). The mRNA level was normalized using the TATA-box binding protein (TBP) mRNA level as the standard. […]
Protein lysates were quantified and separated on SDS-PAGE gel, and immunoblotting was carried out. […]

O=C(OC[C@H]1O[C@@H](OC(=O)c2cc(O)c(O)c(O)c2)[C@H](OC(=O)c2cc(O)c(O)c(O)c2)[C@@H](OC(=O)c2cc(O)c(O)c(O)c2)[C@@H]1OC(=O)c1cc(O)c(O)c(O)c1)c1cc(O)c(O)c(O)c1 [PGG, 1,2,3,4,6-penta-O-galloyl-β-D-glucopyranoside]
GNMT promoter activity (in words) [1]: can induce GNMT promoter activity
IC50 (Huh7 cells): 30 µg/mL (≈ 31.9 µM)
GNMT/actin expression in the tumor tissue (immunoblot) (GNMT; PGG 300 mpk xenograft, FIG. 21): induced
expression activity of GNMT mRNA in the tumor (GNMT; combination xenograft study, FIG. 30, F3-6 25 or 300 mpk, PGG 25 mpk with sorafenib 10 mpk): increased
